Reference: patent US9393221B2, “Methods and compounds for reducing intracellular lipid storage” (THE GENERAL HOSPITAL CORPORATION, priority 2011, dated 2016)
Where a name gives a salt, the structure may show the parent alone.

System: ATGL-KO iPSCs
Test: High throughput iPSC chemical screening, Oil Red O (ORO) lipid accumulation; for Z-score: test concentration or dose not given here
Assay type: cell-based, mouse
Conditions: not given

Point of comparison: `C[C@]12CC[C@H](O)C[C@@H]1CC[C@@H]1[C@@H]2CC[C@]2(C)C(=O)CC[C@@H]12` [Epiandrosterone], Z-score −0.835. Against it:
- CNC(=O)Oc1ccc2c(c1)[C@]1(C)CCN(C)[C@@H]1N2C.CNC(=O)Oc1ccc2c(c1)[C@]1(C)CCN(C)[C@@H]1N2C.O=S(=O)(O)O [Eserine sulfate, physostigmine sulfate] — higher, 0.899

Same assay, conditions: glycolytic switch compounds

Point of comparison: `CC(NCCC(c1ccccc1)c1ccccc1)c1ccccc1` (centres unmarked) [Fendiline hydrochloride, reference compound], “Rank in normalized ORO score from screen” value 1. Against it:
- O=c1c2ccccc2[se]n1-c1ccccc1 [Ebselen] — higher, 52
- C#C[C@]1(OC(C)=O)CC[C@H]2[C@@H]3CCC4=C[C@@H](OC(C)=O)CC[C@@H]4[C@H]3CC[C@@]21C [Ethynodiol diacetate] — higher, 61

Same assay, conditions: normalized ORO level vs DMSO-treated cells; compound present during 7 days differentiation, 96-well; negative = decrease in lipid accumulation

Point of comparison: `O=c1c2ccccc2[se]n1-c1ccccc1` [Ebselen], Z-score −1.5273. Against it:
- COc1c2c(nc3ccccc13)OC(C(C)(O)CO)C2 (centres unmarked) [Dubinidine] — higher, 0.2385
- CCCCOc1ccc(C(=O)CCN2CCCCC2)cc1 [Dyclonine hydrochloride] — higher, −1.4276
- CC(=O)[C@H]1CC[C@H]2[C@@H]3C=CC4=CC(=O)CC[C@@]4(C)[C@@H]3CC[C@]12C [Dydrogesterone] — higher, −0.7044
- Clc1ccc(COC(Cn2ccnc2)c2ccc(Cl)cc2Cl)cc1 (centres unmarked) [Econazole nitrate] — higher, −0.8488
- CC[N+](C)(C)c1cccc(O)c1 [Edrophonium chloride] — higher, 0.4533
- Cc1c2ccncc2c(C)c2c1[nH]c1ccccc12 [Ellipticine] — higher, 36.711
- CC[C@H]1CN2CCc3cc(OC)c(OC)cc3[C@@H]2C[C@@H]1C[C@H]1NCCc2cc(OC)c(OC)cc21 [Emetine dihydrochloride] — higher, 32.7653
- CCOC(=O)[C@H](CCc1ccccc1)N[C@@H](C)C(=O)N1CCC[C@H]1C(=O)O [Enalapril maleate] — higher, 0.1645
- C=CCOC(Cn1ccnc1)c1ccc(Cl)cc1Cl (centres unmarked) [Enilconazole] — higher, −0.0014
- CCn1cc(C(=O)O)c(=O)c2cc(F)c(N3CCNCC3)nc21 [Enoxacin] — higher, −0.7386
- Oc1cc(O)c2c(c1)O[C@H](c1ccc(O)c(O)c1)[C@H](O)C2 [Epicatechin-(−)] — higher, 0.9251
- COc1cc(C)nc(-n2nc(C)cc2OC)n1 [Epirizole] — higher, −0.7031
- C[C@]12C[C@H]3S[C@H]3C[C@@H]1CC[C@@H]1[C@@H]2CC[C@]2(C)[C@@H](O)CC[C@@H]12 [Epitiostanol] — lower, −1.7564
- CC[C@]12CCCN3CCc4c(n(c5ccccc45)[C@](O)(C(=O)OC)C1)[C@@H]32 [Epivincamine] — higher, 0.1161
- C[C@]12CC[C@H]3C(=CCc4cc(O)ccc43)[C@@H]1CCC2=O [Equilin] — higher, −1.0652
- CC(C)C[C@H]1C(=O)N2CCC[C@H]2[C@]2(O)O[C@](NC(=O)[C@@H]3C=C4c5cccc6[nH]cc(c56)C[C@H]4N(C)C3)(C(C)C)C(=O)N12 [Ergocryptine-alpha] — higher, −0.2816
- CC[C@H]1OC(=O)[C@H](C)[C@@H](O[C@H]2C[C@@](C)(OC)[C@@H](O)[C@H](C)O2)[C@H](C)[C@@H](O[C@@H]2O[C@H](C)C[C@H](N(C)C)[C@H]2O)[C@](C)(O)C[C@@H](C)C(=O)[C@H](C)[C@@H](O)[C@]1(C)O [Erythromycin] — higher, 1.131
- O=c1ccc2cc(O)c(O)cc2o1 [Esculetin] — higher, −0.9295
- O=c1ccc2cc(O[C@@H]3O[C@H](CO)[C@@H](O)[C@H](O)[C@H]3O)c(O)cc2o1 [Esculin Hydrate] — higher, −1.2808
- C[C@]12CC[C@@H]3c4ccc(O)cc4CC[C@H]3[C@@H]1CC[C@@H]2O [Estradiol-17 beta] — higher, −0.9541
- C[C@]12CC[C@@H]3c4ccc(O)cc4CC[C@H]3[C@@H]1C[C@@H](O)[C@@H]2O [Estriol] — higher, 0.06999
- C[C@]12CC[C@@H]3c4ccc(O)cc4CC[C@H]3[C@@H]1CCC2=O [Estrone] — lower, −1.8166
- C[C@]12CC[C@@H]3c4ccc(OS(=O)(=O)O)cc4CC[C@H]3[C@@H]1CCC2=O [Estropipate] — lower, −1.7711
- O=C(Cn1ccnc1[N+](=O)[O-])NCCO [Etanidazole] — higher, 0.6681
- C=C(CC)C(=O)c1ccc(OCC(=O)O)c(Cl)c1Cl [Ethacrynic acid] — higher, −0.302
- CC[C@@H](CO)NCCN[C@@H](CC)CO [Ethambutol dihydrochloride] — higher, −0.6303
- CCN(CC)C(=O)c1ccc(O)c(OC)c1 [Ethamivan] — higher, −0.565
- O=S(=O)(O)c1cc(O)ccc1O [Ethamsylate] — higher, 0.04738
- CCOc1ccc(Cc2nccc3cc(OCC)c(OCC)cc23)cc1OCC [Ethaverine hydrochloride] — higher, 17.3528
- CCc1cc(C(N)=S)ccn1 [Ethionamide] — higher, −0.9932
- C#C[C@]1(O)CC[C@H]2[C@@H]3CCC4=CC(=O)CC[C@]4(C)[C@H]3CC[C@@]21C [Ethisterone] — higher, −0.2541
- CCN(CC)C(C)CN1c2ccccc2Sc2ccccc21 (centres unmarked) [Ethopropazine hydrochloride] — lower, −1.7382
- CCC1(C)CC(=O)NC1=O (centres unmarked) [Ethosuximide] — higher, 1.076
- CCN1C(=O)NC(c2ccccc2)C1=O (centres unmarked) [Ethotoin] — higher, −0.7327
- CCOc1ccc2c(c1)C(C)=CC(C)(C)N2 [Ethoxyquin] — higher, −0.0471
- C#C[C@]1(OC(C)=O)CC[C@H]2[C@@H]3CCC4=C[C@@H](OC(C)=O)CC[C@@H]4[C@H]3CC[C@@]21C [Ethynodiol diacetate] — higher, −1.4458
- C#C[C@]1(O)CC[C@H]2[C@@H]3CCc4cc(OC)ccc4[C@H]3CC[C@@]21C [Ethynylestradiol 3-methyl ether] — higher, −0.93
- CC(O)(P(=O)(O)O)P(=O)(O)O [Etidronic acid, disodium salt] — higher, −0.1368
- CCc1cccc(CC)c1NC(=O)CN(CC(=O)O)CC(=O)O [Etifenin] — higher, −1.0427
- CCNCC(O)c1cccc(O)c1 (centres unmarked) [Etilefrine hydrochloride] — higher, 0.1398
- CCc1cccc2c3c([nH]c12)C(CC)(CC(=O)O)OCC3 (centres unmarked) [Etodolac] — higher, 1.6287
- Cn1c(=O)c2c(ncn2CCO)n(C)c1=O [Etofylline] — higher, −0.8406
- CCOC(=O)c1cncn1[C@H](C)c1ccccc1 [Etomidate] — higher, 0.2274
- COc1cc([C@@H]2c3cc4c(cc3[C@@H](O[C@@H]3O[C@@H]5CO[C@@H](C)O[C@H]5[C@H](O)[C@H]3O)[C@H]3COC(=O)[C@H]23)OCO4)cc(OC)c1O [Etoposide] — higher, 39.4033
- CC1CC(OC(=O)C(O)c2ccccc2)CC(C)(C)N1C (centres unmarked) [Eucatropine hydrochloride] — higher, 0.9133
- COc1c2ccoc2nc2c(OC)c(OCC(O)C(C)(C)O)ccc12 (centres unmarked) [Evoxine] — higher, −0.3336
- NC(N)=Nc1nc(CSCCC(N)=NS(N)(=O)=O)cs1 [Famotidine] — higher, −1.1457
- CC(C)c1c(CN(C)C(C)Cc2ccccc2)n(C)n(-c2ccccc2)c1=O (centres unmarked) [Famprofazone] — higher, 0.6911
- O=C(O)Cc1ccc(-c2ccccc2)cc1 [Felbinac] — higher, −0.9529
- CCOC(=O)C1=C(C)NC(C)=C(C(=O)OC)C1c1cccc(Cl)c1Cl (centres unmarked) [Felodipine] — higher, 1.337
- COC(=O)Nc1nc2ccc(Sc3ccccc3)cc2[nH]1 [Fenbendazole] — higher, 16.3822
- O=C(O)CCC(=O)c1ccc(-c2ccccc2)cc1 [Fenbufen] — higher, −0.3877
- CC(NCCC(c1ccccc1)c1ccccc1)c1ccccc1 (centres unmarked) [Fendiline hydrochloride, reference compound] — lower, −2.53
- CC(C)OC(=O)C(C)(C)Oc1ccc(C(=O)c2ccc(Cl)cc2)cc1 [Fenofibrate] — lower, −1.6051
- CC(C(=O)O)c1cccc(Oc2ccccc2)c1 (centres unmarked) [Fenoprofen calcium salt dihydrate] — higher, −0.4668
- CC(Cc1ccc(O)cc1)NCC(O)c1cc(O)cc(O)c1 (centres unmarked) [Fenoterol hydrobromide] — higher, −0.7445
- O=C1NCC2(CCN(CCc3ccccc3)CC2)O1 [Fenspiride hydrochloride] — higher, 0.2827
- COc1cc(C(=O)OC2CC3CCC(C2)N3C)ccc1O (centres unmarked) [Fillalbin] — higher, 0.7621
- CC(C)(C)NC(=O)[C@H]1CC[C@H]2[C@@H]3CC[C@H]4NC(=O)C=C[C@]4(C)[C@H]3CC[C@]12C [Finasteride] — higher, 1.067
- O=C(COc1ccc(Cl)cc1)N1CCN(Cc2ccc3c(c2)OCO3)CC1 [Fipexide hydrochloride] — higher, −0.9747
- Cc1c(-c2ccccc2)oc2c(C(=O)OCCN3CCCCC3)cccc2c1=O [Flavoxate hydrochloride] — higher, 0.3535
- O=C(NCC1CCCCN1)c1cc(OCC(F)(F)F)ccc1OCC(F)(F)F (centres unmarked) [Flecainide acetate] — higher, −0.9948
- CS(=O)(=O)c1ccc([C@@H](O)[C@@H](CF)NC(=O)C(Cl)Cl)cc1 [Florfenicol] — higher, 31.4352
- Cc1onc(-c2c(F)cccc2Cl)c1C(=O)N[C@@H]1C(=O)N2[C@@H]1SC(C)(C)[C@@H]2C(=O)O [Flucloxacillin sodium] — higher, 0.5241
- Nc1[nH]c(=O)ncc1F [Flucytosine] — higher, −0.8908
- CC(=O)OCC(=O)[C@@]1(O)CC[C@H]2[C@@H]3CCC4=CC(=O)CC[C@]4(C)[C@@]3(F)[C@@H](O)C[C@@]21C [Fludrocortisone acetate] — higher, −0.9911
- O=C(O)c1ccccc1Nc1cccc(C(F)(F)F)c1 [Flufenamic acid] — higher, −0.8139
- CC1CCc2cc(F)cc3c(=O)c(C(=O)O)cn1c23 (centres unmarked) [Flumequine] — higher, −0.8648
- Fc1ccc(C(c2ccc(F)cc2)N2CCN(C/C=C/c3ccccc3)CC2)cc1 [Flunarizine dihydrochloride] — higher, 0.2207
- CC1(C)O[C@@H]2C[C@H]3[C@@H]4C[C@H](F)C5=CC(=O)C=C[C@]5(C)[C@H]4[C@@H](O)C[C@]3(C)[C@]2(C(=O)CO)O1 [Flunisolide] — higher, 0.2241
- Cc1c(Nc2ncccc2C(=O)O)cccc1C(F)(F)F [Flunixin meglumine] — higher, −1.0122
- CC(=O)OCC(=O)[C@@]12OC(C)(C)O[C@@H]1C[C@H]1[C@@H]3C[C@H](F)C4=CC(=O)C=C[C@]4(C)[C@@]3(F)[C@@H](O)C[C@@]12C [Fluocinonide] — higher, 0.3846
- C/C=C1/C[N@+]2(C)CC[C@]34C(=C(C=O)[C@H]1C[C@@H]32)Nc1ccccc14.[Cl-] [Fluorocurarine chloride] — higher, −1.1648
- CC(=O)[C@@]1(O)CC[C@H]2[C@@H]3C[C@H](C)C4=CC(=O)C=C[C@]4(C)[C@@]3(F)[C@@H](O)C[C@@]21C [Fluorometholone] — higher, 0.1317
